# Molecular target: T1, apelin receptor (APJ) (Homo sapiens, UniProt P35414)
# T1 sequence (P35414 1-380): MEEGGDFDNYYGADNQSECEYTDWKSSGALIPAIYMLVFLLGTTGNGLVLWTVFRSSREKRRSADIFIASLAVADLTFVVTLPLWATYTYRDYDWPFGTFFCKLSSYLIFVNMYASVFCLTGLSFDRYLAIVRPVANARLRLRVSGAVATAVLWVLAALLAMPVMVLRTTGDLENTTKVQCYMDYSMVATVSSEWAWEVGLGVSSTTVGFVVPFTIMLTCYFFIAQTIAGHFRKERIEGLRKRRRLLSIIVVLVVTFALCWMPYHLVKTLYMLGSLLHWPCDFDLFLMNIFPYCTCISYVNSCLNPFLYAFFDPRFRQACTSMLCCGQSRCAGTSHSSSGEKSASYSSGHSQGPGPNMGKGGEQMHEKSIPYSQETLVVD
# Assay: In vitro apelin agonist activity (methods of Giddings et al., Apelin-13 as positive control)
# Format: cell-based
# Conditions: EC50 (nM) Ave, in vitro apelin agonist activity, methods of Giddings et al., Apelin-13 as positive control
# Text: Characterization of the Apelin Agonist Activity of the Compounds
# 1:39-47, the contents of which are hereby incorporated by reference in its entirety. Using the methods described in Giddings et al. and Apelin-13 as a positive control.
row,Compound,EC50 [nM]
1,"O=C(C[C@H](CCN1CCOCC1)NC(=O)c1cc(-c2ccccc2C(F)(F)F)n(C2CCCC2)n1)NC1CCC1 [compound 491, (3S)-N-cyclobutyl-3-({1-cyclopentyl-5-[2-(trifluoromethyl)phenyl]-1H-pyrazol-3-yl}formamido)-5-(morpholin-4-yl)pentanamide]",68

# Same assay, conditions: in vitro apelin agonist activity, methods of Giddings et al., Apelin-13 as positive control; read-out: EC50 (nM) Ave
row,Compound,EC50 [nM]
1,"CCc1ccccc1-c1cc(C(=O)N[C@@H](CCN2CCC(F)(F)CC2)CC(=O)Nc2nccs2)nn1C1CCCC1 [compound 409, (3S)-3-{[1-cyclopentyl-5-(2-ethylphenyl)-1H-pyrazol-3-yl]formamido}-5-(4,4-difluoropiperidin-1-yl)-N-(1,3-thiazol-2-yl)pentanamide]",12.5
2,"COc1cccc(OC)c1-c1cc(C(=O)N[C@@H](CC2CC2)C(=O)O)nn1C1CCCC1 [compound 385, (2S)-2-{[1-cyclopentyl-5-(2,6-dimethoxyphenyl)-1H-pyrazol-3-yl]formamido}-3-cyclopropylpropanoic acid]",> 10000
3,"CC(F)(F)c1ccccc1-c1cc(C(=O)N[C@@H](CCN2CCC(=O)CC2(C)C)CC(=O)O)nn1C1CCCC1 [compound 611, (3S)-3-({1-cyclopentyl-5-[2-(1,1-difluoroethyl)phenyl]-1H-pyrazol-3-yl}formamido)-5-(2,2-dimethyl-4-oxopiperidin-1-yl)pentanoic acid]",509
4,"COc1cccc(OC)c1-c1cc(C(=O)N[C@@H](CCc2ccccc2)CC(=O)Nc2nnn[nH]2)nn1C1CCCC1 [compound 381, (3S)-3-{[1-cyclopentyl-5-(2,6-dimethoxyphenyl)-1H-pyrazol-3-yl]formamido}-5-phenyl-N-(1H-1,2,3,4-tetrazol-5-yl)pentanamide]",647
5,"O=C(O)C[C@H](CCN1CC(C(F)(F)F)C1)NC(=O)c1cc(-c2ccccc2C(F)(F)F)n(C2CCCC2)n1 [compound 601, (3S)-3-({1-cyclopentyl-5-[2-(trifluoromethyl)phenyl]-1H-pyrazol-3-yl]formamido)-543-(trifluoromethypazetidin-1-yl]pentanoic acid]",128
6,COc1cccc(OC)c1-c1cc(C(=O)N[C@@H](CCN2CCCCC2)Cc2nnc[nH]2)nn1C1CCCC1 [compound 414],200
7,"CC(F)(F)c1ccccc1-c1cc(C(=O)N[C@@H](CCN2CCC[C@@H](F)C2)CC(=O)O)nn1C1CCCC1 [compound 593, (3S)-3-({1-cyclopentyl-5-[2-(1,1-difluoroethyl)phenyl]-1H-pyrazol-3-yl}formamido)-5-[(3R)-3-fluoropiperidin-1-yl]pentanoic acid]",79
8,"COc1cccc(OC)c1-c1cc(C(=O)N[C@@H](CCN2CCCCC2)CC(=O)NC2CCOCC2)nn1C1CCCC1 [compound 332, (3S)-3-{[1-cyclopentyl-5-(2,6-dimethoxyphenyl)-1H-pyrazol-3-yl]formamido}-N-(oxan-4-yl)-5-(piperidin-1-yl)pentanamide]",391
9,"COCCN(C)C(=O)[C@H](CCc1ccccc1)NC(=O)c1cc(-c2ccccc2C(F)(F)F)n(C2CCCC2)n1 [compound 542, (2S)-2-({1-cyclopentyl-5-[2-(trifluoromethyl)phenyl]-1H-pyrazol-3-yl}formamido)-N-(2-methoxyethyl)-N-methyl-4-phenylbutanamide]",105
10,"COc1cccc(OC)c1-c1cc(C(=O)N[C@@H](CCN2CCOCC2)CC(=O)NC2CCC2)nn1C1CCCC1 [compound 312, (3S)-N-cyclobutyl-3-{[1-cyclopentyl-5-(2,6-dimethoxyphenyl)-1H-pyrazol-3-yl]formamido}-5-(morpholin-4-yl)pentanamide]",343
11,"CC(F)(F)c1ccccc1-c1cc(C(=O)N[C@@H](CCN2C[C@@H](F)[C@@H](F)C2)CC(=O)O)nn1C1CCCC1 [compound 598, (3S)-3-({1-cyclopentyl-5-[2-(1,1-difluoroethyl)phenyl]-1H-pyrazol-3-yl}formamido)-5-[cis-3,4-difluoropyrrolidin-1-yl]pentanoic acid]",103
12,"CC(C)(C)Cn1nc(C(=O)N[C@@H](CCN2CCCC(F)(F)C2)CC(=O)O)cc1-c1ccccc1C(F)(F)F [compound 568, (3S)-5-(3,3-difluoropiperidin-1-yl)-3-{[1-(2,2-dimethylpropyl)-5-[2-(trifluoromethyl)phenyl]-1H-pyrazol-3-yl]formamido}pentanoic acid]",> 10000
13,"O=C(O)C[C@H](CCN1CCC(F)(F)C1)NC(=O)c1cc(-c2ccccc2C(F)(F)F)n(C2CCCC2)n1 [compound 485, (3S)-3-({1-cyclopentyl-5-[2-(trifluoromethyl)phenyl]-1H-pyrazol-3-yl}formamido)-5-(3,3-difluoropyrrolidin-1-yl)pentanoic acid]",110
14,"O=C(O)C[C@H](CCN1C(=O)CCC1=O)NC(=O)c1cc(-c2ccccc2C(F)(F)F)n(C2CCCC2)n1 [compound 643, (3S)-3-({1-cyclopentyl-5-[2-(trifluoromethyl)phenyl]-1H-pyrazol-3-yl}formamido)-5-(2,5-dioxopyrrolidin-1-yl)pentanoic acid]",182
15,"COc1cccc(OC)c1-c1cc(C(=O)N[C@@H](CCCC2CCCCC2)CC(=O)O)nn1CC(C)C [compound 301, (3S)-6-cyclohexyl-3-{[5-(2,6-dimethoxyphenyl)-1-(2-methylpropyl)-1H-pyrazol-3-yl]formamido}hexanoic acid]",2590
16,"C#Cc1ccccc1-c1cc(C(=O)N[C@@H](CCN2CCCCC2)CC(=O)NC2CCC2)nn1C1CCCC1 [compound 438, (3S)-N-cyclobutyl-3-{[1-cyclopentyl-5-(2-ethynylphenyl)-1H-pyrazol-3-yl]formamido}-5-(piperidin-1-yl)pentanamide]",290
17,"CCN(CC)CC[C@@H](CC(=O)NC1CCC1)NC(=O)c1cc(-c2c(OC)cccc2OC)n(C2CCCC2)n1 [compound 314, (3S)-N-cyclobutyl-3-{[1-cyclopentyl-5-(2,6-dimethoxyphenyl)-1H-pyrazol-3-yl]formamido}-5-(diethylamino)pentanamide]",1840
18,"O=C(O)C[C@H](CCN1CCCC(F)(F)C1)NC(=O)c1cc(-c2ccc(Cl)cc2C(F)(F)F)n(C2CCCC2)n1 [compound 555, (3S)-3-({5-[4-chloro-2-(trifluoromethyl)phenyl]-1-cyclopentyl-1H-pyrazol-3-yl}formamido)-5-(3,3-difluoropiperidin-1-yl)pentanoic acid]",1570
19,"O=C(C[C@H](CCN1CCCC(F)(F)C1)NC(=O)c1cc(-c2cnccc2C(F)(F)F)n(C2CCCC2)n1)NC1CCC1 [compound 460, (3S)-N-cyclobutyl-3-(f 1-cyclopentyl-544-(trifluoromethyppyridin-3-yl1-1H-pyrazol-3-yl}formamido)-5-(3,3-difluoropiperidin-1-yl)pentanamide]",23
20,"COc1cccc(Cl)c1-c1cc(C(=O)N[C@@H](CCN2CCCCC2)CC(=O)NC2CCC2)nn1C1CCCC1 [compound 370, (3S)-3-{[5-(2-chloro-6-methoxyphenyl)-1-cyclopentyl-1H-pyrazol-3-yl]formamido}-N-cyclobutyl-5-(piperidin-1-yl)pentanamide]",1030
21,"COc1cccc(OC)c1-c1cc(C(=O)N[C@@H](CCc2ccccc2)C(=O)Nc2nnn[nH]2)nn1C1CCCC1 [compound 395, (2S)-2-{[1-cyclopentyl-5-(2,6-dimethoxyphenyl)-1H-pyrazol-3-yl]formamido}-4-phenyl-N-(1H-1,2,3,4-tetrazol-5-yl)butanamide]",> 10000
22,"COc1cccc(OC)c1-c1cc(C(=O)N[C@@H](CCN2C(C)CCCC2C)CC(=O)NC2CCC2)nn1C1CCCC1 (stereo partly drawn) [compound 329, (3S)-N-cyclobutyl-3-{[1-cyclopentyl-5-(2,6-dimethoxyphenyl)-1H-pyrazol-3-yl]formamido}-5-(2,6-dimethylpiperidin-1-yl)pentanamide]",170
23,"CC(C)c1ccccc1-c1cc(C(=O)N[C@@H](CCN2CCCCC2)CC(=O)NC2CCC2)nn1C1CCCC1 [compound 397, (3S)-N-cyclobutyl-3-({1-cyclopentyl-5-[2-(propan-2-yl)phenyl]-1H-pyrazol-3-yl}formamido)-5-(piperidin-1-yl)pentanamide]",140
24,"O=C(C[C@H](CCN1CCCCC1)NC(=O)c1cc(-c2ccccc2C2CC2)n(C2CCCC2)n1)NC1CCC1 [compound 413, (3S)-N-cyclobutyl-3-{[1-cyclopentyl-5-(2-cyclopropylphenyl)-1H-pyrazol-3-yl]formamido}-5-(piperidin-1-yl)pentanamide]",49
25,"NS(=O)(=O)C[C@H](CC(=O)N1CCCC(F)(F)C1)NC(=O)c1cc(-c2ccccc2C(F)(F)F)n(C2CCCC2)n1 [compound 540, 1-cyclopentyl-N-[(2S)-4-(3,3-difluoropiperidin-1-yl)-4-oxo-1-sulfamoylbutan-2-yl]-5-[2-(trifluoromethyl)phenyl]-1H-pyrazole-3-carboxamide]",1380
26,"COc1cccc(OC)c1-c1cc(C(=O)N[C@@H](CCN2CCCCC2)CC(=O)Nc2nccs2)nn1C1CCCC1 [compound 338, (3S)-3-{[1-cyclopentyl-5-(2,6-dimethoxyphenyl)-1H-pyrazol-3-yl]formamido}-5-(piperidin-1-yl)-N-(1,3-thiazol-2-yl)pentanamide]",12
27,"CC1(F)CCN(CC[C@@H](CC(=O)O)NC(=O)c2cc(-c3ccccc3C(F)(F)F)n(C3CCCC3)n2)C1 (stereo partly drawn) [compound 609, (3S)-3-({1-cyclopentyl-5-[2-(trifluoromethyl)phenyl]-1H-pyrazol-3-yl}formamido)-5-(3-fluoro-3-methylpyrrolidin-1-yl)pentanoic acid]",98

# Reference: patent US11535630B2, “Apelin receptor (APJ) agonists and uses thereof” (Research Triangle Institute, priority 2015, dated 2022)
